Measured values from the NIST ThermoML archive (doi:10.1016/j.jct.2017.02.022).

What was measured:
[1] = xn = mol fraction of the nth substance listed; settings: 101.3 kPa, Liquid; for speed of sound: Frequency=3 MHz, Sing-around technique in a fixed-path interferometer; for mass density: Vibrating tube method
[2] = refractive index (Na D-line) (dimensionless); xn = mol fraction of the nth substance listed; settings: 101.3 kPa, Liquid, Standard Abbe refractometry

CCn1cc[n+](C)c1.COS(=O)(=O)[O-] [1-ethyl-3-methylimidazolium methylsulfate] + CCCCO
Settings | mass density, [1] [kg/m3] | refractive index, [2] | speed of sound, [1] [m/s]
298 K, x1 = 0.041 | 843 | 1.403 | 1260
298 K, x1 = 0.219 | 976 | 1.424 | 1372
298 K, x1 = 0.417 | 1087 | 1.442 | 1504
298 K, x1 = 0.571 | 1156 | 1.454 | 1593
298 K, x1 = 0.731 | 1214 | 1.464 | 1662
298 K, x1 = 0.909 | 1268 | 1.475 | 1729
298 K, x1 = 1 | 1292 | 1.48 | 1762
303 K, x1 = 0.041 | 839 | 1.401 | 1243
303 K, x1 = 0.219 | 972 | 1.422 | 1356
303 K, x1 = 0.417 | 1083 | 1.44 | 1488
303 K, x1 = 0.571 | 1152 | 1.452 | 1578
303 K, x1 = 0.731 | 1210 | 1.462 | 1648
303 K, x1 = 0.909 | 1264 | 1.473 | 1716
303 K, x1 = 1 | 1289 | 1.479 | 1750
308 K, x1 = 0.041 | 835 | 1.398 | 1226
308 K, x1 = 0.219 | 967 | 1.419 | 1340
308 K, x1 = 0.417 | 1078 | 1.437 | 1473
308 K, x1 = 0.571 | 1147 | 1.449 | 1563
308 K, x1 = 0.731 | 1206 | 1.461 | 1634
308 K, x1 = 0.909 | 1261 | 1.472 | 1702
308 K, x1 = 1 | 1285 | 1.478 | 1739
313 K, x1 = 0.041 | 830 | 1.395 | 1209
313 K, x1 = 0.219 | 963 | 1.416 | 1324
313 K, x1 = 0.417 | 1074 | 1.435 | 1457
313 K, x1 = 0.571 | 1143 | 1.447 | 1548
313 K, x1 = 0.731 | 1202 | 1.459 | 1620
313 K, x1 = 0.909 | 1257 | 1.47 | 1689
313 K, x1 = 1 | 1282 | 1.476 | 1727

COS(=O)(=O)[O-].Cn1cc[n+](C)c1 [1,3-dimethylimidazolium methylsulfate] + CCCCCO
Settings | mass density, [1] [kg/m3] | refractive index, [2] | speed of sound, [1] [m/s]
298 K, x1 = 0.1 | 884 | 1.417 | 1311
298 K, x1 = 0.35 | 1041 | 1.439 | 1448
298 K, x1 = 0.54 | 1140 | 1.454 | 1552
298 K, x1 = 0.661 | 1195 | 1.463 | 1618
298 K, x1 = 0.79 | 1250 | 1.471 | 1672
298 K, x1 = 0.931 | 1304 | 1.479 | 1751
298 K, x1 = 1 | 1329 | 1.483 | 1811
303 K, x1 = 0.1 | 879 | 1.416 | 1295
303 K, x1 = 0.35 | 1035 | 1.438 | 1432
303 K, x1 = 0.54 | 1134 | 1.452 | 1536
303 K, x1 = 0.661 | 1189 | 1.461 | 1603
303 K, x1 = 0.79 | 1243 | 1.469 | 1659
303 K, x1 = 0.931 | 1298 | 1.477 | 1738
303 K, x1 = 1 | 1322 | 1.481 | 1799
308 K, x1 = 0.1 | 875 | 1.414 | 1278
308 K, x1 = 0.35 | 1031 | 1.436 | 1417
308 K, x1 = 0.54 | 1129 | 1.451 | 1521
308 K, x1 = 0.661 | 1185 | 1.459 | 1588
308 K, x1 = 0.79 | 1239 | 1.467 | 1645
308 K, x1 = 0.931 | 1294 | 1.476 | 1725
308 K, x1 = 1 | 1319 | 1.48 | 1787
313 K, x1 = 0.1 | 871 | 1.412 | 1261
313 K, x1 = 0.35 | 1026 | 1.433 | 1401
313 K, x1 = 0.54 | 1125 | 1.448 | 1506
313 K, x1 = 0.661 | 1181 | 1.456 | 1574
313 K, x1 = 0.79 | 1235 | 1.465 | 1631
313 K, x1 = 0.931 | 1290 | 1.474 | 1713
313 K, x1 = 1 | 1315 | 1.479 | 1775

COS(=O)(=O)[O-].Cn1cc[n+](C)c1 [1,3-dimethylimidazolium methylsulfate] + CCCO
Settings | mass density, [1] [kg/m3] | refractive index, [2] | speed of sound, [1] [m/s]
298 K, x1 = 0.039 | 843 | 1.389 | 1225
298 K, x1 = 0.208 | 995 | 1.413 | 1348
298 K, x1 = 0.382 | 1107 | 1.434 | 1481
298 K, x1 = 0.561 | 1193 | 1.452 | 1605
298 K, x1 = 0.702 | 1246 | 1.464 | 1684
298 K, x1 = 0.912 | 1307 | 1.477 | 1773
298 K, x1 = 1 | 1329 | 1.483 | 1811
303 K, x1 = 0.039 | 839 | 1.387 | 1208
303 K, x1 = 0.208 | 989 | 1.41 | 1332
303 K, x1 = 0.382 | 1100 | 1.432 | 1465
303 K, x1 = 0.561 | 1186 | 1.45 | 1590
303 K, x1 = 0.702 | 1239 | 1.461 | 1670
303 K, x1 = 0.912 | 1301 | 1.476 | 1760
303 K, x1 = 1 | 1322 | 1.481 | 1799
308 K, x1 = 0.039 | 834 | 1.385 | 1191
308 K, x1 = 0.208 | 984 | 1.408 | 1316
308 K, x1 = 0.382 | 1095 | 1.429 | 1450
308 K, x1 = 0.561 | 1181 | 1.447 | 1575
308 K, x1 = 0.702 | 1234 | 1.459 | 1656
308 K, x1 = 0.912 | 1297 | 1.474 | 1747
308 K, x1 = 1 | 1319 | 1.48 | 1787
313 K, x1 = 0.039 | 830 | 1.382 | 1175
313 K, x1 = 0.208 | 979 | 1.404 | 1300
313 K, x1 = 0.382 | 1090 | 1.426 | 1434
313 K, x1 = 0.561 | 1176 | 1.444 | 1561
313 K, x1 = 0.702 | 1229 | 1.456 | 1642
313 K, x1 = 0.912 | 1293 | 1.472 | 1734
313 K, x1 = 1 | 1315 | 1.479 | 1775
